Assay: Early studies: permeation and transient acidification of pig skin
Settings: same amounts of ammonia equivalents and sulfuric acid in comparison solutions

N.N.O=S(=O)(O)O [ammonium sulfate]
permeation of pig skin and transient acidification: neither of the acidified ammonium salts solutions permeated pig skin

Source: patent publication US20260248842A1, “METHOD FOR TRANSIENT ACIDIFICATION OF WOUNDS” (SePRO Corporation, priority 2023, published 2026)
